Measured values: patent publication US5985908A, “MCBI analogs of CC-1065 and the duocarmycins” (The Scripps Research Institute, priority 1998, dated 1999)

Experiments:
[1] = test system: w794 5'-AATTA high affinity site; assay: Relative rate of w794 alkylation at the 5'-AATTA high-affinity site; format: biochemical, SV40; settings: 10^-6 M; for relative rate of DNA alkylation k(254):k(CBI-TMI):k(2): 4° C., 0-48 hours
Procedure: FIG. 15 illustrates a plot of percent integrated optical density (% IOD) versus time established through autoradiography of 5'-^32 P and labeled DNA and used to monitor the relative rate of w794 alkylation at the 5'-AATTA high-affinity site for 1, 254, 258, (+)-CBI-TMI and (+)-DSA-indole2.
Representative of this difficulty in detecting distinguishing relative rates for the three classes of agents, a similar rate comparison of (+)-DSA-indole2 and (+)-MCBI-indole2 (258) conducted at 25° C. […] In sharp contrast, all three kinetically alkylate DNA much faster than the corresponding CPI-based agent (10-50×) where the distinctions are much more pronounced and easily experimentally distinguished.

[2] = test system: w794 DNA (SV40 DNA fragment, 144 bp); settings: cited from earlier work
[3] = test system: w794 DNA (SV40 DNA fragment, 144 bp); assay: DNA alkylation, thermally-induced strand cleavage of w794 DNA; format: biochemical; settings: for selectivity and efficiency of DNA alkylation, natural enantiomers compared: 25° C., 24 hours, 254 vs 2, 266 vs 1; for concentration of detectable DNA alkylation, natural enantiomers: w794, 25° C., 24 hours (FIG. 17); for concentration of detectable DNA alkylation, unnatural enantiomers: 72 hours (FIG. 13)
Procedure: FIG. 13 illustrates thermally-induced strand cleavage of double-stranded DNA (SV40 DNA fragment, 144 bp, nucleotide no. 5238-138, clone w794) after 72 hours incubation of agent-DNA at 37° C. followed by removal of unbound agent and 30 minutes incubation at 100° C.; 8% denaturing PAGE and autoradiography. Lane 1, control DNA; lanes 2-4, (-)-MCBI-TMI (254, 1×10^-5 to 1×10^-7 M); lanes 5-7, (-)-duocarmycin SA (2, 1×10^-5 to 1×10^-7 M); lanes 8-11, Sanger G, C, A and T reactions; lanes 12-14, (-)-CC-1065 (1, 1×10^-5 to 1×10^-7 M); lanes 15-17, (-)-MCBI-CDPI2 (266, 1×10^-5 to 1×10^-7 M); lanes 18-20, (-)-MCBI-CDPI1 (262, 1×10^-5 to 1×10^-7 M); lanes 21-23 (-)-MCBI-indole2 (258, 1×10^-5 to 1×10^-7 M).
As indicated, the DNA-agent incubation was conducted at 37° C. for 24 or 48 hours, followed by removal of unbound agent and 30 minutes incubation at 100° C.; 8% denaturing PAGE and autoradiography.
FIG. 17 illustrates thermally-induced strand cleavage of double-stranded DNA (SV40 DNA fragment, 144 bp, nucleotide no. 5238-138, clone w794) after 24 hours incubation of agent-DNA at 25° C. followed by removal of unbound agent and 30 minutes incubation at 100° C; 8% denaturing PAGE and autoradiography. Lane 1, control DNA; lanes 2-4, (+)-duocarmycin SA (2, 1×10^-5 to 1×10^-7 M); lanes 5-7, (+)-MCBI-TMI (254, 1×10^-5 to 1×10^-7 M); lanes 8-11, Sanger G, C, A and T reactions; lanes 12-14, (+)-CC-1065 (1, 1×10^-5 to 1×10^-7 M); lanes 15-17, (+)-MCBI-indole2 (258, 1×10^-5 to 1×10^-7 M); lanes 18-20, (+)-MCBI-CDPI2 (266, 1×10^-5 to 1×10^-7 M).
(§1) The DNA alkylation properties of the agents were examined within four 150 base-pair segments of duplex DNA for which comparative results are available for related agents. Four clones of phage M13mp10 were selected for study and contain the SV40 nucleosomal DNA inserts w794 (nucleotide no. 5238-138) and its complement w836 (nucleotide no. 5189-91) and c988 (nucleotide no. 4359-4210) and its complement c820 (nucleotide no. 4201-4356). The alkylation site identification and the assessment of the relative selectivity among the available sites were obtained by thermally-induced strand cleavage of the singly 5'end-labeled duplex DNA after exposure to the agents. Following treatment of the end-labeled duplex DNA with a range of agent concentrations, the unbound agent was removed by EtOH precipitation of the DNA. Redissolution of the DNA in aqueous buffer, thermolysis (100° C., 30 minutes) to induce strand cleavage at the sites of DNA alkylation, denaturing high resolution polyacrylamide gel electrophoresis (PAGE) adjacent to Sanger dideoxynucleotide sequencing standards, and autoradiography led to identification of the DNA cleavage and alkylation sites. The full details of this procedure have been disclosed and discussed elsewhere (10). The DNA alkylation reaction selectivities observed under the incubation conditions of 25° C. (24 hours) for the agents detailed herein have proven identical to the alkylation selectivities observed with shorter or extended reaction periods or when the reactions were conducted at different temperatures (37 or 4° C., 0.5-7 days). As discussed below, the rates and efficiencies but not final relative efficiencies of DNA alkylation were altered by changing the reaction temperatures.

[4] = test system: duplex DNA (w794, w836, c988, c820); assay: DNA alkylation selectivity within four 150 base-pair segments of duplex DNA; format: biochemical, SV40
Source text: as §1

[5] = Solvolysis reactivity (UV), aqueous buffer-CH3OH; format: physicochemical
Procedure: The solvolysis was followed spectrophotometrically by UV with the disappearance of the long-wavelength absorption band of the MCBI chromophore ([…]) and with the appearance of a short-wavelength absorption band (266 nm) attributable to seco-N-BOC-MCBI (FIG. 9).
N-BOC-MCBI (238, 0.1 mg) was dissolved in CH3 OH (1.5 mL) and mixed with pH 3 aqueous buffer (1.5 mL). The buffer contained 4:1:20 (v:v:v) 0.1 M citric acid, 0.2 M Na2 HPO4, and H2 O, respectively. The solvolysis solution was sealed and kept at 25° C. protected from light. The UV spectrum was measured at regular intervals every 2 hours during the first day, every 12 hours for another week, and every 24 hours for an additional week. The decrease in the long-wavelength absorption at 324 nm and the increase in the short-wavelength absorption at 266 nm were monitored, FIG. 1.
Similarly, MCBI (240, 0.1 mg) was dissolved in CH3 OH (1.5 mL) and mixed with […] (1.5 mL). The solvolysis solution was sealed and stirred at 25° C. in the dark. The UV spectrum was recorded every 24 hours for two months. The decrease in the long-wavelength absorption at 340 nm and the increase in absorption at 268 nm were monitored, FIG. 1.

[6] = Solvolysis reactivity (UV), aqueous buffer-CH3OH; format: physicochemical; settings: pH 7, 1:1 H2O-CH3OH
L1210 = assay: In vitro cytotoxic activity; format: cell-based

In the case of COc1cc2cc(C(=O)N3C[C@H]4C[C@@]45C3=CC(=O)c3ccccc35)[nH]c2c(OC)c1OC [(+)-CBI-TMI], the “relative rate of DNA alkylation k(254):k(CBI-TMI):k(2)” value [1] is reported as 1.0.

In the case of COc1cc2cc(C(=O)N3C[C@@H]4C[C@]45C3=CC(=O)c3ccccc35)[nH]c2c(OC)c1OC [(-)-CBI-TMI], the “DNA alkylation distinction between (-)-CBI-TMI and ent-(-)-duocarmycin SA” value ([2]; prior comparison) is given as 10 ×.

With COC(=O)c1cc2c([nH]1)C(=O)C=C1N(C(=O)c3cc4cc(NC(=O)c5cc6ccccc6[nH]5)ccc4[nH]3)C[C@H]3C[C@]123 [(+)-DSA-indole2] the “relative rate k(DSA-indole2)/k(MCBI-indole2)” value ([1]; 25° C., 0-24 hours) was 1.05.

With COC(=O)c1cc2c([nH]1)C(=O)C=C1N(C(=O)c3cc4cc(OC)c(OC)c(OC)c4[nH]3)CC3CC123 (single isomer, unassigned; (+)) [(+)-duocarmycin SA, reference compound] the “relative rate of DNA alkylation k(254):k(CBI-TMI):k(2)” value [1] was 0.9, the “selectivity and efficiency of DNA alkylation, natural enantiomers compared” value [3] was “indistinguishable” and the “concentration of detectable DNA alkylation, natural enantiomers” value [3] was 10^-6 to 10^-7 M. The “concentration of detectable DNA alkylation, unnatural enantiomers” value ([3]; w794, 37° C.) was 10^-5 M and the “AT-rich alkylation selectivity, size of site, natural enantiomers” value [4] was 3.5 base-pair.

For COc1ccc2c(c1)C13CC1CN(C(=O)OC(C)(C)C)C3=CC2=O (stereo not drawn) [Compound 238, N-(tert-Butyloxycarbonyl)-7-methoxy-1,2,9,9a-tetrahydrocyclopropa[c]benz[e]indol-4-one], the “acceleration of rate of solvolysis by C7 methoxy group vs. corresponding CBI agent” value ([5]; acid-catalyzed solvolysis, pH 3) was 1.6 ×, the “half-life relative to parent agent N-BOC-CBI (4)” value ([5]; pH 3) was 0.6 times and the “solvolysis rate constant k” value ([5]; pH 3, 50% CH3OH-buffer, 25° C.) was 2.41e-06 s⁻¹. For the same compound, the half-life ([5]; pH 3, 50% CH3OH-buffer, 25° C., read-out: solvolysis half-life t1/2 (converted)) was 80 h, the “evidence of solvolysis at pH 7” value [6] was “did not show evidence of solvolysis” and the “alkylation selectivity of N-BOC-MCBI” value ([3]; both enantiomers, two base-pair AT-rich selectivity) was 5'-AA>5'-TA. For the same compound, the “DNA alkylation efficiency relative to 257-266” value ([3]; fold less efficient, both enantiomers) was 10^4 × and the “concentration of detectable DNA alkylation, two enantiomers of N-BOC-MCBI” value ([3]; w794, 37° C., 24-48 hours (FIG. 16)) was 10^-2 to 10^-3 M.

For CC(C)(C)OC(=O)N1C[C@H]2C[C@@]23C1=CC(=O)c1ccccc13 [(+)-N-BOC-CBI], the “relative efficiency of DNA alkylation, natural/unnatural enantiomer (earlier agent)” value ([2]; (+)-N-BOC-CBI/ent-(-)-N-BOC-CBI) is listed as 5-10 ×.

For COc1ccc2c(c1)[C@@]13C[C@@H]1CN(C(=O)c1cc4cc(OC)c(OC)c(OC)c4[nH]1)C3=CC2=O [(+)-MCBI-TMI], the “cytotoxic potency of natural enantiomer relative to unnatural enantiomer” value (L1210; fold, natural more potent than unnatural) was 50 ×, the “relative rate of DNA alkylation k(254):k(CBI-TMI):k(2)” value [1] was 1.8 and the “selectivity and efficiency of DNA alkylation, natural enantiomers compared” value [3] was “indistinguishable”. For the same compound, the “concentration of detectable DNA alkylation, natural enantiomers” value [3] was 10^-6 to 10^-7 M.

For COc1ccc2c(c1)C13CC1CN(C(=O)c1cc4cc(OC)c(OC)c(OC)c4[nH]1)C3=CC2=O (stereo not drawn) [Compound 254], the “enantiomer distinction (in words)” value (L1210; natural vs unnatural enantiomer, listed as MCBI-TMI) was “analogous distinctions but somewhat smaller than those observed with CBI-TMI”, the “concentration of detectable DNA alkylation, unnatural enantiomers” value ([3]; w794, 37° C.) was 10^-5 M and the “AT-rich alkylation selectivity, size of site, natural enantiomers” value [4] was 3.5 base-pair.
